Experiment [1] addresses rat adipose tissue homogenate SSAO/VAP-1 (Rattus norvegicus (Rat), UniProt O08590). The experiment can be described thus: Determination of inhibitory activity of rat adipose tissue homogenate SSAO/VAP-1. The settings on record: rat abdominal adipose tissue homogenate, pargyline pretreated, 37° C. Format: biochemical, Sprague Dawley rats. Here is the method: 2. Determination of Inhibitory Activity of Rat Adipose Tissue Homogenate SSAO/VAP-1
Test purpose: The following methods can be used to determine the inhibitory activity of the compounds of the invention for rat adipose tissue homogenate SSAO/VAP-1.
The abdominal fat removed from Sprague Dawley rats was a tissue rich in SSAO/VAP-1. 5 mL Of HES buffer per gram of rat abdominal adipose tissue (20 mM Sodium N-piperazine-N-ethanesulfonate, 1 mm EDTA, 250 mM sucrose, 1×PMSF and 100 mM (3-glycerol phosphate disodium salt hydrate, pH 7.4) was added for homogenizing. The fat tissue was homogenized for 3 min by using Bertin precellys 24 multi-functional sample homogenizer of Bertin technologies, and the fat tissue homogenate was centrifuged for 10 min at 4° C. and 20000 g, and the middle transparent supernatant was taken. The supernatant was incubated with 0.5 mm Pargyline hydrochloride dissolved in HES buffer at 37° C. for 30 min. After 30 min incubation, 25 μl of fat tissue supernatant was added to the standard 96 well plate. The test compound was dissolved in DMSO and diluted to 6 concentrations. 25 μL Of the test compounds with different concentrations was added to each well containing the supernatant of fat tissue and incubated at 37° C. for 30 min. After incubation, 50 μL of the reaction mixture containing 80 μM benzylamine hydrochloride (containing 100 μM Amplex® red and 0.2 U/mL HRP, Amplex® Red Hydrogen peroxideperoxidase assay kit) was added to the corresponding wells and incubated at 37° C. for 30 min. After 30 min, the relative fluorescence unit (RFU) was read by using PHERAstar FSX enzyme marker of BMG LABTECH at 540 nm excitation and 580 nm emission. The curve was drawn by using the graph pad prism 5 software, and the IC50 value was calculated. The results were shown in table 2, wherein the compound listed in table 2 is the compound in the preparation examples with the same compound number: Table 2: inhibitory activity of the compound of examples of the invention for SSAO/VAP-1 of fat tissue homogenate

Experiment [2] has as its target Human recombinant SSAO/VAP-1 (Homo sapiens (Human), UniProt Q16853). Description: Determination of inhibitory activity of human recombinant SSAO/VAP-1 (Amplex Red, benzylamine). Conditions: human recombinant SSAO/VAP-1, 30 min preincubation at room temperature; read-out: SSAO/VAP-1(Human recombinant protein) IC50/nM. Format: biochemical. The protocol:
1. Determination of Inhibitory Activity of Human Recombinant SSAO/VAP-1
Test purpose: The following methods can be used to determine the inhibitory activity of the compounds described in the examples of the invention for human recombinant SSAO/VAP-1.
Human recombinant SSAO/VAP-1 (VAP-1, human) purchased from Sigma, Cat. No. SRP6241;
The test compound was dissolved in DMSO and diluted to 10 concentrations in 4-fold serial dilution. In 384 well plates, 25 μL of human recombinant SSAO/VAP-1 (1.6 μg/ml) was added to each well. 100 nL of test compounds with different concentrations were added to each well containing human recombinant SSAO/VAP-1 and incubated at room temperature for 30 min. After 30 min incubation, 25 μl of Amplex® red monoamine oxidase assay kit (containing a reaction mixture of 200 μm Amplex Red reagent, 1 U/ml HRP and 1 mm benzylamine hydrochloride) was added to the corresponding well, and incubated at room temperature and dark for 60 min. After 60 min, the relative fluorescence unit (RFU) was read by using PerkinElmer's Envision at 530-560 nm excitation and 590 nm emission. The curve was drawn by using the graph pad prism 5 software, and the IC50 value was calculated. The results were shown in table 1, wherein the compound listed in table 1 is the compound in the preparation examples with the same compound number: […]

Counter-ions that a name gives are not always drawn.

Chain of Human recombinant SSAO/VAP-1 (Q16853 whole entry): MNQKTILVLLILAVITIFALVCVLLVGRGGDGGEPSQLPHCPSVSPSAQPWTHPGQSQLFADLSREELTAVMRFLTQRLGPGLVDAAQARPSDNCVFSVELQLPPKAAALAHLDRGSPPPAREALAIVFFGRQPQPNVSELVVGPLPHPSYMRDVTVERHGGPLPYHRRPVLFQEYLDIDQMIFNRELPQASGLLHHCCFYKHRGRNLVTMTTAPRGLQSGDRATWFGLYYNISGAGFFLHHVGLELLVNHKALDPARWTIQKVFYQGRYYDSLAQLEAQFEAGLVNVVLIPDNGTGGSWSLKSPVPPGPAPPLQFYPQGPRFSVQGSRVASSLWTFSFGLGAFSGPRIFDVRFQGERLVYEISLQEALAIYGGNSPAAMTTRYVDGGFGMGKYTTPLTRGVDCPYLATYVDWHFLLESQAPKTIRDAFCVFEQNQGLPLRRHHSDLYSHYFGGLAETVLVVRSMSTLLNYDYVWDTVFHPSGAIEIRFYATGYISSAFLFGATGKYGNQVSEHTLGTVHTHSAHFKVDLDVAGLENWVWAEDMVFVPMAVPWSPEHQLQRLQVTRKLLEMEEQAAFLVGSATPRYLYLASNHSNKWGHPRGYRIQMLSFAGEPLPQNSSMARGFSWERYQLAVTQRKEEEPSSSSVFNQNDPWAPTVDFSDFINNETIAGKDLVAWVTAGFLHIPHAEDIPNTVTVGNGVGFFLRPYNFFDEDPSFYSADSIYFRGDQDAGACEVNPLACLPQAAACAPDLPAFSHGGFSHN
Chain of rat adipose tissue homogenate SSAO/VAP-1 (O08590 whole entry): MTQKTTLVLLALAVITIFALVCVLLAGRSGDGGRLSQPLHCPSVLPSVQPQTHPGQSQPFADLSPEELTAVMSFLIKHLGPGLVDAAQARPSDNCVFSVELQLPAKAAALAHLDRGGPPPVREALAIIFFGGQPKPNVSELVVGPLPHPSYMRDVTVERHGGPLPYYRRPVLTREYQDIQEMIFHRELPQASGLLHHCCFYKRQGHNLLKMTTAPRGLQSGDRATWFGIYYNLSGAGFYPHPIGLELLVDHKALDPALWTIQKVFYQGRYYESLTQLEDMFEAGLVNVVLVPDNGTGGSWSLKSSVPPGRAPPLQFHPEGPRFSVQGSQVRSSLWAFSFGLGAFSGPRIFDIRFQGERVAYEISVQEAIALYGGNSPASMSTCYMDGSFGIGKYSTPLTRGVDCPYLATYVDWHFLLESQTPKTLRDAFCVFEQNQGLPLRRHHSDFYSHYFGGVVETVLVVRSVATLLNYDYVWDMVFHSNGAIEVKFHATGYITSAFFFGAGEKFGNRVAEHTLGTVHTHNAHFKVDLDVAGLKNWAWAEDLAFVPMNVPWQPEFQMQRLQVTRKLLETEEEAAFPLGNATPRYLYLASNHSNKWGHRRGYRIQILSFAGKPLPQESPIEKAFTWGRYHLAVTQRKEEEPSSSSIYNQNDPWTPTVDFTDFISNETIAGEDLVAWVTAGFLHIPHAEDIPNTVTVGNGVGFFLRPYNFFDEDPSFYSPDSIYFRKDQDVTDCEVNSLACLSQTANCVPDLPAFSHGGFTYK

As to `NC/C(=C\F)COc1ccc2c(c1)NC(=O)CC2` [Compound 1, 7-[(E)-2-(aminomethyl)-3-fluoro-allyloxy]-3,4-dihydro-1H-quinolin-2-one hydrochloride], in experiment [1], the IC50 is 10.1 nM.

On to `NC/C(=C/F)COc1ccc2c(c1)NC(=O)CC2` [Compound 2, 7-[(Z)-2-(aminomethyl)-3-fluoro-allyloxy]-3,4-dihydro-1H-quinolin-2-one hydrochloride], for which the IC50 in experiment [2] turned out to be 1.01 nM; in experiment [1], 11.6 nM.

For `NC/C(=C\F)COc1ccc2c(c1)CCN(c1ccccc1)C2=O` [Compound 5, 6-[(E)-2-(aminomethyl)-3-fluoro-allyloxy]-2-phenyl-3,4-dihydroisoquinolin-1-one hydrochloride], the values for the IC50 in experiment [2] and in experiment [1] were 0.37 nM and 4.87 nM, respectively.

As to `NC/C(=C/F)COc1ccc2c(c1)CCN(c1ccccc1)C2=O` [Compound 6, 6-[(Z)-2-(aminomethyl)-3-fluoro-allyloxy]-2-phenyl-3,4-dihydroisoquinolin-1-one hydrochloride], in experiment [2], the IC50 was determined as 0.04 nM.

In the case of `NC/C(=C\F)COc1ccc2c(c1)CCN(c1ncccn1)C2=O` [Compound 7, 6-[(E)-2-(aminomethyl)-3-fluoro-allyloxy]-2-(pyrimidin-2-yl)-3,4-dihydroisoquinolin-1-one hydrochloride], the figures for the IC50 in experiment [2] and in experiment [1] were 0.09 nM and 8.98 nM, respectively.

As for `CN1CCc2cc(OC/C(=C/F)CN)ccc2C1=O` [Compound 8, 6-[(E)-2-(aminomethyl)-3-fluoro-allyloxy]-2-methyl-3,4-dihydroisoquinolin-1-one hydrochloride], the figures for the IC50 in experiment [2] and in experiment [1] were 0.32 nM and 8.84 nM, respectively.

As to `CN1CCc2cc(OC/C(=C\F)CN)ccc2C1=O` [Compound 9, 6-[(Z)-2-(aminomethyl)-3-fluoro-allyloxy]-2-methyl-3,4-dihydroisoquinolin-1-one hydrochloride], the figures for the IC50 in experiment [2] and in experiment [1] were 0.61 nM and 8.05 nM, respectively.

For `NC/C(=C\F)COc1ccc2c(c1)CCN(CC1CCOCC1)C2=O` [Compound 10, 6-[(E)-2-(aminomethyl)-3-fluoro-allyloxy]-2-(tetrahydropyranyl-4-methylene)-3,4-dihydroisoquinolin-1-one hydrochloride], the IC50 in experiment [1] came out at 9.54 nM.

For `NC/C(=C/F)COc1ccc2c(c1)CCN(CC1CCOCC1)C2=O` [Compound 11, 6-[(Z)-2-(aminomethyl)-3-fluoro-allyloxy]-2-(tetrahydropyranyl-4-methylene)-3,4-dihydroisoquinolin-1-one hydrochloride], the figures for the IC50 in experiment [2] and in experiment [1] were 0.82 nM and 11.7 nM, respectively.

Consider `CCOC(=O)CN1CCc2cc(OC/C(=C\F)CN)ccc2C1=O` [Compound 13, ethyl 2-[6-[(Z)-2-(aminomethyl)-3-fluoro-allyloxy]-1-oxo-3,4-dihydroisoquinolin-2-yl]acetate hydrochloride], for which the IC50 in experiment [2] is 0.11 nM; in experiment [1] it was 8.03 nM.

`NC/C(=C/F)COc1ccc2c(c1)CCN(CCOCc1ccccc1)C2=O` [Compound 21, 6-[(Z)-2-(aminomethyl)-3-fluoro-allyloxy]-2-(2-benzyloxyethyl)-3,4-dihydro isoquinolin-1-one hydrochloride]: in experiment [2], the IC50 was 0.91 nM.

Regarding `NC/C(=C\F)COc1ccc2c(c1)CCN(c1ccccn1)C2=O` [Compound 28, 6-[(E)-2-(aminomethyl)-3-fluoro-allyloxy]-2-(2-pyridyl)-3,4-dihydroisoquinolin-1-one hydrochloride], the IC50 in experiment [2] was determined as 1.53 nM.

Regarding `NC/C(=C\F)COc1ccc2c(c1)CCNS2(=O)=O` [Compound 32, (E)-2-[(1,1-dioxo-3,4-dihydro-2H-benzo[e][1,2]thiazin-6-yl)oxymethyl]-3-fluoro-prop-2-enyl-1-amine hydrochloride], the IC50 in experiment [1] turned out to be 6.22 nM.

Consider `NC/C(=C\F)COc1ccc2c(c1)CCN(c1ccccc1F)C2=O` [Compound 34, 6-[(E)-2-(aminomethyl)-3-fluoro-allyloxy]-2-(2-fluorophenyl)-3,4-dihydroisoquinolin-1-one hydrochloride], for which the IC50 in experiment [2] worked out at 1.16 nM.

Consider `NC/C(=C/F)COc1ccc2c(c1)CCN(c1ccccc1F)C2=O` [Compound 35, 6-[(Z)-2-(aminomethyl)-3-fluoro-allyloxy]-2-(2-fluorophenyl)-3,4-dihydroisoquinolin-1-one hydrochloride], for which the IC50 in experiment [2] is 0.71 nM.

Turning to `N#Cc1ccc(N2CCc3cc(OC/C(=C/F)CN)ccc3C2=O)cc1` [Compound 38, 4-[6-[(E)-2-(aminomethyl)-3-fluoro-allyloxy]-1-oxo-3,4-dihydroisoquinolin-2-yl]benzonitrile hydrochloride], the IC50 in experiment [2] is 0.68 nM.

For the compound `N#Cc1ccc(N2CCc3cc(OC/C(=C\F)CN)ccc3C2=O)cc1` [Compound 39, 4-[6-[(Z)-2-(aminomethyl)-3-fluoro-allyloxy]-1-oxo-3,4-dihydroisoquinolin-2-yl]benzonitrile hydrochloride], the IC50 in experiment [2] worked out at 0.53 nM.

As to `NC/C(=C\F)COc1ccc2c(c1)CCN(c1nccs1)C2=O` [Compound 40, 6-[(E)-2-(aminomethyl)-3-fluoro-allyloxy]-2-thiazol-2-yl-3,4-dihydroisoquinolin-1-one hydrochloride], the IC50 in experiment [2] came to 1 nM.

As for `NC/C(=C/F)COc1ccc2c(c1)CCN(c1nccs1)C2=O` [Compound 41, 6-[(Z)-2-(aminomethyl)-3-fluoro-allyloxy]-2-thiazol-2-yl-3,4-dihydroisoquinolin-1-one hydrochloride], the IC50 in experiment [2] amounted to 0.63 nM.

In the case of `NC/C(=C\F)COc1ccc2c(c1)CCN(Cc1ccon1)C2=O` [Compound 42, 6-[(E)-2-(aminomethyl)-3-fluoro-allyloxy]-2-(isoxazol-3-yl-methyl)-3,4-dihydroisoquinolin-1-one hydrochloride], the IC50 in experiment [2] was found to be 1.13 nM.

For the compound `NC/C(=C/F)COc1ccc2c(c1)CCN(Cc1ccon1)C2=O` [Compound 43, 6-[(Z)-2-(aminomethyl)-3-fluoro-allyloxy]-2-(isoxazol-3-yl-methyl)-3,4-dihydroisoquinolin-1-one hydrochloride], the IC50 in experiment [2] turned out to be 0.71 nM.

Turning to `NC/C(=C/F)COc1ccc2c(c1)CCN(c1ccccc1)C2` [Compound 53, (Z)-3-fluoro-2-[(2-phenyl-3,4-dihydro-1H-isoquinolin-6-yl)oxymethyl]prop-2-enyl-1-amine hydrochloride], the IC50 in experiment [2] worked out at 1.04 nM.

For the compound `COc1ncc(N2CCc3cc(OC/C(=C\F)CN)ccc3C2=O)cn1` [Compound 55, 6-[(Z)-2-[(aminomethyl)-3-fluoro-allyloxy]-2-(2-methoxypyrimidin-5-yl)-3,4-dihydroisoquinolin-1-one hydrochloride], the IC50 in experiment [2] stood at 0.82 nM.

As for `COC(=O)CCN1CCc2cc(OC/C(=C/F)CN)ccc2C1=O` [Compound 56, methyl 3-[6-[(E)-2-(aminomethyl)-3-fluoro-allyloxy]-1-oxo-3,4-dihydroisoquinolin-2-yl]propionate hydrochloride], the IC50 in experiment [2] was 1.91 nM.

Consider `COC(=O)CCN1CCc2cc(OC/C(=C\F)CN)ccc2C1=O` [Compound 57, methyl 3-[6-[(Z)-2-(aminomethyl)-3-fluoro-allyloxy]-1-oxo-3,4-dihydroisoquinolin-2-yl]propionate hydrochloride], for which the IC50 in experiment [2] was 1.27 nM.

Regarding `COC(=O)CN1CCc2cc(OC/C(=C/F)CN)ccc2C1=O` [Compound 58, methyl 2-[6-[(E)-2-(aminomethyl)-3-fluoro-allyloxy]-1-oxo-3,4-dihydroisoquinolin-2-yl]acetate hydrochloride], the IC50 in experiment [2] came to 1.17 nM.

For `COC(=O)CN1CCc2cc(OC/C(=C\F)CN)ccc2C1=O` [Compound 59, methyl 2-[6-[(Z)-2-(aminomethyl)-3-fluoro-allyloxy]-1-oxo-3,4-dihydroisoquinolin-2-yl]acetate hydrochloride], in experiment [2], the IC50 stood at 1.3 nM.

(Values after patent US11396495B2, “Amine compound for inhibiting SSAO/VAP-1 and use thereof” (SUNSHINE LAKE PHARMA CO., LTD., priority 2017, dated 2022).)
